Measured values as given in US9815802B2, “Herbicidally active N-(1-methyltetrazol-5-yl)benzoic acid amides” (BAYER CROPSCIENCE AKTIENGESELLSCHAFT, priority 2014, dated 2017).

Legend:
Format in all cases: in vivo
[1] = test system: Stellaria media; test: Pre-emergence herbicidal action against STEME
Text: (§1) Pre-Emergence Herbicidal Action Against Harmful Plants
(§2) Seeds of monocotyledonous and dicotyledonous weed plants and crop plants are laid out in wood-fiber pots in sandy loam and covered with soil. The compounds of the invention, formulated in the form of wettable powders (WP) or as emulsion concentrates (EC), are then applied to the surface of the covering soil in the form of an aqueous suspension or emulsion at a water application rate equating to 600 to 800 I/ha, with addition of 0.2% wetting agent. After the treatment, the pots are placed in a greenhouse and kept under good growth conditions for the trial plants. The damage to the test plants is scored visually after a test period of 3 weeks by comparison with untreated controls (herbicidal activity in percent (%): 100% activity=the plants have died, 0% activity=like control plants). For example, compounds no. 1-001, 1-002, 1-003, 1-004, 1-011, 1-012, 1-021, 1-022, 1-031, 1-032, 1-041, 1-042 and 1-044 at an application rate of 320 g/ha each have at least 80% efficacy against Echinocloa crusgalli, Abutilon theophrasti, Amaranthus retroflexus and Matricaria inodora.

[2] = test system: Setaria viridis; test: Pre-emergence herbicidal action against SETVI
Text: as §1, §2

[3] = test system: Alopecurus myosuroides; test: Post-emergence herbicidal action against ALOMY
Experimental: (§3) Post-Emergence Herbicidal Action Against Harmful Plants Seeds of monocotyledonous and dicotyledonous weed and crop plants are laid out in sandy loam in wood-fiber pots, covered with soil and cultivated in a greenhouse under good growth conditions. 2 to 3 weeks after sowing, the test plants are treated at the one-leaf stage. The compounds of the invention, formulated in the form of wettable powders (WP) or as emulsion concentrates (EC), are then sprayed onto the green parts of the plants in the form of an aqueous suspension or emulsion at a water application rate equating to 600 to 800 I/ha, with addition of 0.2% wetting agent. After the test plants have been left to stand in the greenhouse under optimal growth conditions for about 3 weeks, the action of the preparations is assessed visually in comparison to untreated controls (herbicidal action in percent (%): 100% activity=the plants have died, 0% activity=like control plants).

[4] = test system: Avena fatua; test: Post-emergence herbicidal action against AVEFA
Experimental: as §3

[5] = test system: Polygonum convolvulus; test: Post-emergence herbicidal action against POLCO
Experimental: as §3

[6] = test system: Avena fatua; test: Pre-emergence herbicidal action against AVEFA; details: dosage 320 g/ha
Text: as §1, §2

[7] = test system: Pharbitis purpureum; test: Pre-emergence herbicidal action against PHBPU; details: dosage 320 g/ha
Text: as §1, §2

[8] = test system: Polygonum convolvulus; test: Pre-emergence herbicidal action against POLCO; details: dosage 320 g/ha
Text: as §1, §2

COSc1c(C)ccc(C(=O)Nc2nnnn2C)c1I was tested, and the “Activity against STEME” value ([1]; dosage 320 g/ha) was 70% and the “Activity against SETVI” value ([2]; dosage 320 g/ha) was 30%.
In the case of COSc1c(C)ccc(C(=O)Nc2nnnn2C)c1OC, the “Activity against STEME” value ([1]; dosage 320 g/ha) is reported as 60% and the “Activity against SETVI” value ([2]; dosage 320 g/ha) is reported as 40%.
With COSc1c(C=O)ccc(C(=O)Nc2nnnn2C)c1C the “Activity against STEME” value ([1]; dosage 320 g/ha) was 0% and the “Activity against SETVI” value ([2]; dosage 320 g/ha) was 0%.
In the case of CCOSc1c(C)ccc(C(=O)Nc2nnnn2C)c1C, the “Activity against ALOMY” value ([3]; dosage 80 g/ha) is reported as 90% and the “Activity against AVEFA” value ([4]; dosage 80 g/ha) is reported as 100%.
For COSc1c(C(C)C)ccc(C(=O)Nc2nnnn2C)c1C, the “Activity against ALOMY” value ([3]; dosage 5 g/ha) was 60% and the “Activity against AVEFA” value ([4]; dosage 5 g/ha) was 40%.
In the case of Cc1c(C(=O)Nc2nnnn2C)ccc(C(C)C)c1S(C)(=O)=O, the “Activity against ALOMY” value ([3]; Table S, dosage 5 g/ha) is reported as 60% and the “Activity against AVEFA” value ([4]; Table S, dosage 5 g/ha) is reported as 30%.
With Cc1c(C(=O)Nc2nnnn2C)ccc(I)c1S(C)(=O)=O the “Activity against ALOMY” value ([3]; Table S, dosage 5 g/ha) was 20% and the “Activity against AVEFA” value ([4]; Table S, dosage 5 g/ha) was 0%.
In the case of Cc1c(C(=O)Nc2nnnn2C)ccc(C(F)(F)F)c1S(C)(=O)=O, the “Activity against ALOMY” value ([3]; Table S, dosage 5 g/ha) is reported as 30% and the “Activity against AVEFA” value ([4]; Table S, dosage 5 g/ha) is reported as 0%.
CCc1c(C(=O)Nc2nnnn2C)ccc(Cl)c1SOC was tested, and the “Activity against POLCO” value ([5]; Table V, dosage 5 g/ha) was 20%.
CCc1c(C(=O)Nc2nnnn2C)ccc(Br)c1S(C)(=O)=O was tested, and the “Activity against POLCO” value ([5]; Table W, dosage 20 g/ha) was 40%.
In the case of CCOSc1c(C(F)(F)F)ccc(C(=O)Nc2nnnn2C)c1CC, the “Activity against POLCO” value ([5]; Table X, dosage 20 g/ha) is reported as 20%.
CCc1ccc(C(=O)Nc2nnnn2C)c(CC)c1S(=O)(=O)CC was tested, and the “Activity against POLCO” value ([5]; Table Y, dosage 20 g/ha) was 100%.
For CCc1c(C(=O)Nc2nnnn2C)ccc(C(F)(F)F)c1S(=O)(=O)CC, the “Activity against POLCO” value ([5]; Table Y, dosage 20 g/ha) was 80%.
Cc1ccc(C(=O)Nc2nnnn2C)c(C)c1[S+](C)[O-] (centres unmarked) [1-001, 2,4-Dimethyl-3-(methylsulfinyl)-N-(1-methyl-1H-tetrazol-5-yl)benzamide] was tested, and the “Activity against STEME” value ([1]; dosage 320 g/ha) was 90% and the “Activity against SETVI” value ([2]; dosage 320 g/ha) was 100%.
CCS(=O)(=O)c1c(C)ccc(C(=O)Nc2nnnn2C)c1C [1-004] was tested, and the “Activity against AVEFA” value [6] was 90% and the “Activity against PHBPU” value [7] was 80%.
With CCc1ccc(C(=O)Nc2nnnn2C)c(C)c1S(C)(=O)=O [1-012] the “Activity against STEME” value ([1]; dosage 80 g/ha) was 90% and the “Activity against SETVI” value ([2]; dosage 80 g/ha) was 100%.
CCc1c(C(=O)Nc2nnnn2C)ccc(C)c1S(C)(=O)=O [1-032] was tested, and the “Activity against AVEFA” value [6] was 80% and the “Activity against PHBPU” value [7] was 80%.
With CCc1ccc(C(=O)Nc2nnnn2C)c(CC)c1[S+](C)[O-] (centres unmarked) [1-041] the “Activity against POLCO” value [8] was 80% and the “Activity against PHBPU” value [7] was 80%.
For CCc1ccc(C(=O)Nc2nnnn2C)c(CC)c1S(C)(=O)=O [1-042], the “Activity against POLCO” value [8] was 100% and the “Activity against PHBPU” value [7] was 100%.
For Cc1c(C(=O)Nc2nnnn2C)cccc1S(C)(=O)=O [4-080], the “Activity against STEME” value ([1]; dosage 80 g/ha) was 50% and the “Activity against SETVI” value ([2]; dosage 80 g/ha) was 20%.
CCc1c(C(=O)Nc2nnnn2C)ccc(Cl)c1S(C)(=O)=O [4-192, reference compound] was tested, and the “Activity against POLCO” value [8] was 60% and the “Activity against PHBPU” value [7] was 80%.
In the case of COc1ccc(C(=O)Nc2nnnn2C)c(C)c1S(C)(=O)=O [4-439], the “Activity against AVEFA” value [6] is reported as 50%, the “Activity against STEME” value ([1]; dosage 80 g/ha) is reported as 70% and the “Activity against SETVI” value ([2]; dosage 80 g/ha) is reported as 0%. The “Activity against PHBPU” value [7] was 60%.
For CCc1c(C(=O)Nc2nnnn2C)ccc(Br)c1SOC [4-503, reference compound], the “Activity against POLCO” value [8] was 60% and the “Activity against PHBPU” value [7] was 50%.
Cc1ccc(C(=O)Nc2nnnn2C)c(I)c1S(C)(=O)=O [4-791] was tested, and the “Activity against AVEFA” value [6] was 0% and the “Activity against PHBPU” value [7] was 30%.
For CCS(=O)(=O)c1c(C)ccc(C(=O)Nc2nnnn2C)c1I [4-794], the “Activity against AVEFA” value [6] was 10% and the “Activity against PHBPU” value [7] was 60%.
